Measured values published in US12516038B2, “Inhibitors of antigen presentation by HLA-DR” (Janssen Pharmaceutica NV, priority 2020, dated 2026).

How the values were obtained:
HLA-DRB1*0401 = HLA-DRB1*0401 (Homo sapiens (Human), UniProt P01903+P01911, A100K/A169T/DEL228-266/F76Y/I96L/K127E/L162R/M171V/N62H/P40V/Q125Y/R42H/S133A/S149N/S66Y/V115G/V209L/W38E); assay: HLA-DR4 HTRF assay; format: binding; settings: inhibition of loading of Alexa Fluor 647-labeled Cit-CII peptide onto HLA-DR4 (CLIP cleaved)
Summary of the method: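 HLA-DRB1*04:01 construct (α/β fused to human Fc, CLIP pre-cleaved by HRV3C overnight at 4° C) at 3 nM was preincubated 45 min with compound and 1 nM anti-Fc-Tb donor, then 40 nM Alexa647-Cit-CII1236-1249 peptide added. After 90 min at 37° C, the 665/620 nm HTRF ratio gave % inhibition; IC50 by nonlinear regression.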

[1] = system: human peripheral blood CD4+ helper T cells; assay: Pan-CD4+ T cell activation (off-target assay); format: cell-based; settings: Homo sapiens, T-cell, 24 h, anti-CD3/anti-CD28 stimulation, IL-2 production by ELISA
Summary of the method: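 Human peripheral blood CD4+ T cells, with no APCs present, were stimulated with plate-bound anti-CD3 (1 μg/mL coating) plus soluble anti-CD28 (1 μg/mL) in the presence of compound or vehicle for 24 h. IL-2 in the supernatant was quantified by ELISA.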

[2] = system: HLA-DR4 restricted mouse T cell hybridoma line (DR4.CII.36.8) with HLA-DRB1*04:01-expressing Boleth cells; assay: HLA-DR4-restricted peptide-specific T cell-based assay (hybridoma assay); settings: Mus musculus, T-cell, 6 h, inhibition of IL-2 production, CII259-273 peptide presented by Boleth cells
Summary of the method: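 Boleth cells (HLA-DRB1*04:01 B cell line) pre-incubated with compound 1 h at 37° C. in DMEM/1% FCS, then DR4.CII.36.8 mouse T cell hybridoma (CII259-273-specific) added for 6 h with CII259-273 peptide. Supernatant mouse IL-2 by AlphaLISA; IC50 by 4-PL fit of 8-point duplicate titrations.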

Row | Structure (SMILES) | IC50 (HLA-DRB1*0401) [µM] | IC50 [1] [µM] | IC50 [2] [µM]
1 | N#Cc1ccccc1[C@H](Oc1ccc2c(c1)OCCC2=O)c1ccncc1 (single isomer, unassigned) [Example 7a, (*R)-2-(((4-Oxochroman-7-yl)oxy)(pyridin-4-yl)methyl)benzonitrile] | 0.69 | 4.4 | 4.6
2 | COc1cnccc1[C@@H](Oc1ccc2c(c1)OCCC2=O)c1ccc(C(N)=O)cc1 (single isomer, unassigned) [Example 23b, (*S)-4-((3-methoxypyridin-4-yl)((4-oxochroman-7-yl)oxy)methyl)benzamide] | 0.68 | > 15 | 5
3 | NC(=O)c1ccc([C@@H](Oc2ccc3c(c2)O[C@H](c2ccccc2)CC3=O)c2ccncc2)cc1 (single isomer, unassigned) [Example 43b, 4-((*R)—(((*S)-4-oxo-2-phenylchroman-7-yl)oxy)(pyridin-4-yl)methyl)benzamide] | 4.9 | 9.9 | 0.63
4 | O=C1CCOc2cc(O[C@H](c3ccccc3)c3ccncc3)ccc21 (single isomer, unassigned) [Example 114a, (*R)-7-(phenyl(pyridin-4-yl)methoxy)chroman-4-one] | 1.4 | > 15 | 5.5
5 | C[C@@H]1CC(=O)c2ccc(O[C@@H](c3ccncc3)c3ccc(C(N)=O)cc3)cc2O1 (single isomer, unassigned) [Example 39b, 4-((*R)—(((*R)-2-Methyl-4-oxochroman-7-yl)oxy)(pyridin-4-yl)methyl)benzamide] | 0.85 | 9.9 | 0.6
6 | COc1ccc(COc2cccc([C@@H](Oc3ccc4c(c3)OCCC4=O)c3ccncc3)c2)cc1 (single isomer, unassigned) [Example 4b, (*S)-7-((3-((4-Methoxybenzyl)oxy)phenyl)(pyridin-4-yl)methoxy)chroman-4-one] | 7.9 | 15 | 2.6
7 | NC(=O)c1ccc([C@@H](Oc2ccc3c(c2-c2ccc(-c4ccccc4)cc2)OCCC3=O)c2ccncc2)cc1 (single isomer, unassigned) [Example 79a, (*R)-4-(((8-([1,1′-biphenyl]-4-yl)-4-oxochroman-7-yl)oxy)(pyridin-4-yl)methyl)benzamide] | 28 | 3.1 | 0.47
8 | Cc1cc([C@@H](Oc2ccc3c(c2C)OCCC3=O)c2ccc(C(N)=O)cc2)cc(C)n1 (single isomer, unassigned) [Example 111b, (*S)-4-((2,6-dimethylpyridin-4-yl)((8-methyl-4-oxochroman-7-yl)oxy)methyl)benzamide] | 0.56 | 4.8 | 0.021
9 | Cc1c(O[C@@H](c2ccc(Cl)cc2)c2ccc(C(N)=O)cc2)ccc2c1OCCC2=O (single isomer, unassigned) [Example 57a, (*R)-4-((4-chlorophenyl)((8-methyl-4-oxochroman-7-yl)oxy)methyl)benzamide] | 2.3 | > 15 | 4.8
10 | Cc1c(O[C@@H](c2ccc(Cl)cc2)c2ccc(C(N)=O)nc2)ccc2c1OCCC2=O (single isomer, unassigned) [Example 64b, (*S)-5-((4-chlorophenyl)((8-methyl-4-oxochroman-7-yl)oxy)methyl)picolinamide] | 1.8 | > 15 | 4.8
11 | NC(=O)c1ccc([C@@H](Oc2ccc3c(c2F)OCCC3=O)c2ccncc2)cc1 (single isomer, unassigned) [Example 50a, (*R)-4-(((8-Fluoro-4-oxochroman-7-yl)oxy)(pyridin-4-yl)methyl)benzamide] | 1.9 | 9.9 | 0.24
12 | NC(=O)c1ccc([C@@H](Oc2cc(F)c3c(c2)OCCC3=O)c2ccncc2)cc1 (single isomer, unassigned) [Example 51a, (*R)-4-(((5-Fluoro-4-oxochroman-7-yl)oxy)(pyridin-4-yl)methyl)benzamide] | 3.6 | 15 | 0.25
13 | CC(C)c1cc2c(cc1O[C@H](c1ccncc1)c1ccc(C(N)=O)cc1)OCCC2=O (single isomer, unassigned) [Example 76b, (*S)-4-(((6-isopropyl-4-oxochroman-7-yl)oxy)(pyridin-4-yl)methyl)benzamide] | 1 | 15 | 3.1
14 | CC[C@H]1COc2cc(O[C@@H](c3ccncc3)c3ccc(C(N)=O)cc3)ccc2C1=O (single isomer, unassigned) [Example 46b, 4-((*R)—(((*S)-3-ethyl-4-oxochroman-7-yl)oxy)(pyridin-4-yl)methyl)benzamide] | 1.3 | 5 | 0.17
15 | C[C@@H]1COc2cc(O[C@H](c3ccncc3)c3ccc(C(N)=O)cc3)ccc2C1=O (single isomer, unassigned) [Example 44a, 4-((*S)—(((*R)-3-Methyl-4-oxochroman-7-yl)oxy)(pyridin-4-yl)methyl)benzamide] | 1.6 | > 15 | 1.6
16 | O=C1CCOc2cc(O[C@@H](c3ccncc3)c3ccc(F)cc3)ccc21 (single isomer, unassigned) [Example 3a, (*R)-7-((4-Fluorophenyl)(pyridin-4-yl)methoxy)chroman-4-one] | 1.6 | 15 | 4.2
17 | Cc1cc(C(N)=O)ccc1[C@H](Oc1ccc2c(c1)OCCC2=O)c1ccncc1 (single isomer, unassigned) [Example 36a, (*R)-3-methyl-4-(((4-oxochroman-7-yl)oxy)(pyridin-4-yl)methyl)benzamide] | 0.55 | 4.7 | 4.8
18 | CN(C)C(=O)c1ccc([C@H](Oc2ccc3c(c2)OCCC3=O)c2ccncc2)cc1 (single isomer, unassigned) [Example 72b, (*S)—N,N-dimethyl-4-(((4-oxochroman-7-yl)oxy)(pyridin-4-yl)methyl)benzamide] | 0.69 | > 15 | 11
19 | COc1cc(O[C@@H](c2ccncc2)c2ccc(C(N)=O)cc2)cc2c1C(=O)CCO2 (single isomer, unassigned) [Example 77a, (*R)-4-(((5-methoxy-4-oxochroman-7-yl)oxy)(pyridin-4-yl)methyl)benzamide] | 1.7 | > 15 | 9.1
20 | Cc1c(O[C@H](c2ccncc2)c2ccc(C(N)=O)cc2OCC(C)C)ccc2c1OCCC2=O (single isomer, unassigned) [Example 85a, (*R)-3-isobutoxy-4-(((8-methyl-4-oxochroman-7-yl)oxy)(pyridin-4-yl)methyl)benzamide] | 0.81 | 3.7 | 0.24
21 | CCc1cc(O[C@@H](c2ccncc2)c2ccc(C(N)=O)cc2)cc2c1C(=O)CCO2 (single isomer, unassigned) [Example 99a, (*R)-4-(((5-ethyl-4-oxochroman-7-yl)oxy)(pyridin-4-yl)methyl)benzamide] | 42 | 3.1 | 0.59
22 | COc1ccccc1[C@H](Oc1ccc2c(c1)OCCC2=O)c1ccncc1 (single isomer, unassigned) [Example 14a, (*R)-7-((2-Methoxyphenyl)(pyridin-4-yl)methoxy)chroman-4-one] | 1.9 | > 15 | 8.7
23 | NC(=O)c1ccc([C@@H](Oc2cc3c(cc2-c2ccccc2)C(=O)CCO3)c2ccncc2)cc1 (single isomer, unassigned) [Example 54a, (*R)-4-(((4-oxo-6-phenylchroman-7-yl)oxy)(pyridin-4-yl)methyl)benzamide] | 0.63 | 0.52 | 0.078
24 | N#Cc1ccc([C@@H](Oc2ccc3c(c2)OCCC3=O)c2ccncc2)cc1 (single isomer, unassigned) [Example 10a, (*R)-4-(((4-oxochroman-7-yl)oxy)(pyridin-4-yl)methyl)benzonitrile] | 0.95 | > 15 | 4.9
25 | CC(C)c1cc2c(cc1O[C@@H](c1ccncc1)c1ccc(C(N)=O)cc1)OCCC2=O (single isomer, unassigned) [Example 76a, (*R)-4-(((6-isopropyl-4-oxochroman-7-yl)oxy)(pyridin-4-yl)methyl)benzamide] | 0.65 | 2.2 | 0.32
26 | Cc1c(O[C@H](c2ccc(C(N)=O)cc2)c2ccc(Cl)cn2)ccc2c1OCCC2=O (single isomer, unassigned) [Example 62a, (*R)-4-((5-chloropyridin-2-yl)((8-methyl-4-oxochroman-7-yl)oxy)methyl)benzamide] | 1.5 | 4.7 | 8.5
27 | Cc1c(O[C@H](c2ccc(C#N)cc2)c2ccc(C(N)=O)cc2)ccc2c1OCCC2=O (single isomer, unassigned) [Example 59a, (*R)-4-((4-cyanophenyl)((8-methyl-4-oxochroman-7-yl)oxy)methyl)benzamide] | 1.2 | 4.7 | 3.2
